The text below walks through data of ChEMBL document CHEMBL3991601, “The target landscape of clinical kinase drugs” (Science, 2017).

Counter-ions that a name gives are not always drawn. Calls of active or inactive are those of the source. Where only a bound is given, the exact number is not on record here.

In experiment [1] the target is T1, Eukaryotic translation initiation factor 5B (Homo sapiens, UniProt O60841).
T1 sequence (O60841 whole entry): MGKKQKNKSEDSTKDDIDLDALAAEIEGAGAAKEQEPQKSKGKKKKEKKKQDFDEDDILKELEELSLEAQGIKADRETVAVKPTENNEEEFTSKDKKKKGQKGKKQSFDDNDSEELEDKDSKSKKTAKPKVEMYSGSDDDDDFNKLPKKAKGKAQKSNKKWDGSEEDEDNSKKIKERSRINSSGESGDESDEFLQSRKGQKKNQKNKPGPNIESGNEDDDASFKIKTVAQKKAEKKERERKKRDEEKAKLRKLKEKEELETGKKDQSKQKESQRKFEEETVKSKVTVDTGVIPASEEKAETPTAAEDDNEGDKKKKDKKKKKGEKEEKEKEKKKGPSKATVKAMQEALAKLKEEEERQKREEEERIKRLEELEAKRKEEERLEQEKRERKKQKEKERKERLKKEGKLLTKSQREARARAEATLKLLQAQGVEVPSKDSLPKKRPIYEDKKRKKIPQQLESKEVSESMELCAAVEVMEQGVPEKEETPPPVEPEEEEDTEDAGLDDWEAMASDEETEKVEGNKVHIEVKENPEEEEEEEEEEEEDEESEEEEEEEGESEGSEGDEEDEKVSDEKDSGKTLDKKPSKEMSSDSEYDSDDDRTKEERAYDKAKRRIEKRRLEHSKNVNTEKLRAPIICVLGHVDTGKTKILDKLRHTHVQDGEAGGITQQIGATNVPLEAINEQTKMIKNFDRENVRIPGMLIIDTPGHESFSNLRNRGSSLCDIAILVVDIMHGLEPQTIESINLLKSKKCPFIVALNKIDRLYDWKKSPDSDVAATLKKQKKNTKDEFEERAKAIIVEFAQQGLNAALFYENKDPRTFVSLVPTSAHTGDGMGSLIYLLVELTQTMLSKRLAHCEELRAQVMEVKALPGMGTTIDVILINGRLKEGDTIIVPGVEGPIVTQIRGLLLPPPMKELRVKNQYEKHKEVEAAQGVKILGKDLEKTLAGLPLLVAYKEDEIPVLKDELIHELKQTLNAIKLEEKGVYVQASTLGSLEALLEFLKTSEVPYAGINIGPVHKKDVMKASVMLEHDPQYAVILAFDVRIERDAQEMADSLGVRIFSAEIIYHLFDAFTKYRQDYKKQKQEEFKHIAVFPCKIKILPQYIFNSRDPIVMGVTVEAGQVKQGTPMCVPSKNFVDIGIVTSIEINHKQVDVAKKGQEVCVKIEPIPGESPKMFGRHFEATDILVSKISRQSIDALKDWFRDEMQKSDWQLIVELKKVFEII

For another experiment, the target named is T2, Rab-like protein 3 (Homo sapiens, UniProt Q5HYI8).
T2 sequence (Q5HYI8 whole entry): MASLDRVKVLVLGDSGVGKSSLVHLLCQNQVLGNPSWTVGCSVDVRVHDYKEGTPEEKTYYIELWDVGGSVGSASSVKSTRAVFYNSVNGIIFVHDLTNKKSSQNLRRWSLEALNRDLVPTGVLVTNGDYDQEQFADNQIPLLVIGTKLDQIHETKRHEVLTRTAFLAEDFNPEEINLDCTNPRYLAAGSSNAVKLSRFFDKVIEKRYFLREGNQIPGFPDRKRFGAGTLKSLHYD

For experiment [2], the target named is T3, Phosphatidylinositol 5-phosphate 4-kinase type-2 gamma (Homo sapiens, UniProt Q8TBX8).
T3 sequence (Q8TBX8 whole entry): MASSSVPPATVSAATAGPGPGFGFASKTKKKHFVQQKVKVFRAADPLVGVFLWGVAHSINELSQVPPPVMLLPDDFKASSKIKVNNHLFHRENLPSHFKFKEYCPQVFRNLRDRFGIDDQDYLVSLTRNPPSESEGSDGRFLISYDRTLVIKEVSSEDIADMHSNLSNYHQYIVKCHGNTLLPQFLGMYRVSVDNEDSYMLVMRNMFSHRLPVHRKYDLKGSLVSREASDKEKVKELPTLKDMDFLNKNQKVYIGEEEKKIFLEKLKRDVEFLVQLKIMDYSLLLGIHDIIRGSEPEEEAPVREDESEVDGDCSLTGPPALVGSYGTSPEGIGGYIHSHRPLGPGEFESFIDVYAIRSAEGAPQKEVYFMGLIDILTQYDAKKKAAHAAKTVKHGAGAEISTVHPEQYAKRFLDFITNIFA

The target of the next experiment is T4, TGF-beta receptor type-1 (Homo sapiens, UniProt P36897).
T4 sequence (P36897 whole entry): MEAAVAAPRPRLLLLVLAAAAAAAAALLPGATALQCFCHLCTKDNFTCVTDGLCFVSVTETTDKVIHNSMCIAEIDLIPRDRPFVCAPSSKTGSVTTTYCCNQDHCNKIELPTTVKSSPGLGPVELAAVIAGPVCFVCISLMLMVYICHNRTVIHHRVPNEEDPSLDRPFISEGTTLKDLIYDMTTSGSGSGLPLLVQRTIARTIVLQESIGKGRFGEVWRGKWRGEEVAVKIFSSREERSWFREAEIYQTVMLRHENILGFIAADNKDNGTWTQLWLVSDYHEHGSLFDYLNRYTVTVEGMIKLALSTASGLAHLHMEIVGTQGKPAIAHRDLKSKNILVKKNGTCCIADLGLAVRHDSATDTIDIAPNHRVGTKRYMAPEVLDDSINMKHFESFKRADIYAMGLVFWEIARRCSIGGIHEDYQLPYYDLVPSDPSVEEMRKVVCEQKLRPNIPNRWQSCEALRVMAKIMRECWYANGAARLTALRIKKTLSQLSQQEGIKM

Experiment [3] deals with Proto-oncogene tyrosine-protein kinase Src (Homo sapiens, UniProt P12931).
Experiment [4] addresses Phosphatidylethanolamine-binding protein 1 (Homo sapiens, UniProt P30086).
Experiment [5] deals with T5, MAP kinase-activated protein kinase 5 (Homo sapiens, UniProt Q8IW41).
T5 sequence (Q8IW41 whole entry): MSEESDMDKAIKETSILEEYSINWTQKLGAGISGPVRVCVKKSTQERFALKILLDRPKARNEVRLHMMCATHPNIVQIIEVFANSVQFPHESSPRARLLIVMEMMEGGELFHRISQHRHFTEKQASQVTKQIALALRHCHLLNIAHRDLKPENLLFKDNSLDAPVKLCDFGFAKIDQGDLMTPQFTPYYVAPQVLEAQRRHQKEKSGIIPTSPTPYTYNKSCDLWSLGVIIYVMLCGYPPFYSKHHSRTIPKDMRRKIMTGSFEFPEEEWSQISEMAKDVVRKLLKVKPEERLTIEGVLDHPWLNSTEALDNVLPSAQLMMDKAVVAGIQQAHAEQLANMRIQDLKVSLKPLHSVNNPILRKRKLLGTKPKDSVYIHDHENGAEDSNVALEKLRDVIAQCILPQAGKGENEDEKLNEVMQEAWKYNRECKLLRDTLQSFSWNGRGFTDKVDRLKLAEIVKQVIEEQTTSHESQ
Also: in the data inactive means no Kd found up to 30 µM.

Sequence of Proto-oncogene tyrosine-protein kinase Src (P12931 2-536 limits assumed): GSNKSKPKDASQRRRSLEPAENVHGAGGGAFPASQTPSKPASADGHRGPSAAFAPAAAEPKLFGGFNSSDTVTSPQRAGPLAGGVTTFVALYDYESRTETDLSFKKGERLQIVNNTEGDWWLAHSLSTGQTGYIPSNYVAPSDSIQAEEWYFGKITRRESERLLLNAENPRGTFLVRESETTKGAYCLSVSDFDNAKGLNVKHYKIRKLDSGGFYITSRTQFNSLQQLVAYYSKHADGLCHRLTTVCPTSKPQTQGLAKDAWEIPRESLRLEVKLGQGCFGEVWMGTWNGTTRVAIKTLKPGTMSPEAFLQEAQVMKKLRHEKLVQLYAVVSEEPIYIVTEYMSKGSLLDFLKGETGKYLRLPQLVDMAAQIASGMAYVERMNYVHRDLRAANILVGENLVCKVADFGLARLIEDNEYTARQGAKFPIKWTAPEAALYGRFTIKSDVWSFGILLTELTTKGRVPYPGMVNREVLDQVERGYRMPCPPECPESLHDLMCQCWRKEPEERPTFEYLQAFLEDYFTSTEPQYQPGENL
Sequence of Phosphatidylethanolamine-binding protein 1 (P30086 whole entry): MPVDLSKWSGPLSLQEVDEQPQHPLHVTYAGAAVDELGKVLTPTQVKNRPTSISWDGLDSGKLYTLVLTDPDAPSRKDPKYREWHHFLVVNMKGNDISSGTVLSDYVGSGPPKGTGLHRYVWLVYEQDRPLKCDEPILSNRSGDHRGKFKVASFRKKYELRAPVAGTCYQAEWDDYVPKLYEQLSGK

In the case of `C[C@H]1CNCCCN1S(=O)(=O)c1cccc2cncc(F)c12`, the Kd (in experiment [1]; at Rab-like protein 3; in experiment [2]; on TGF-beta receptor type-1; in experiment [3]) was > 30 µM (inactive) each time.
Regarding `COc1cc(Nc2ncc3c(n2)-c2ccc(Cl)cc2C(c2c(F)cccc2OC)=NC3)ccc1C(=O)O` [ALISERTIB], the Kd (in experiment [1]; on Rab-like protein 3; on TGF-beta receptor type-1; in experiment [3]; in experiment [4]) was > 30 µM (inactive) each time.
Turning to `Cc1nc(NC(=O)N2CCC[C@H]2C(N)=O)sc1-c1ccnc(C(C)(C)C(F)(F)F)c1` [ALPELISIB], the Kd (in experiment [1]; on TGF-beta receptor type-1; in experiment [3]; in experiment [4]; in experiment [5]) was > 30 µM (inactive) each time.
Take `O=C(Nc1c[nH]nc1-c1nc2cc(CN3CCOCC3)ccc2[nH]1)NC1CC1` [AT-9283]: the Kd in experiment [1] was > 30 µM (inactive); at Rab-like protein 3 it was > 30 µM (inactive); in experiment [2], > 30 µM (inactive); on TGF-beta receptor type-1, 0.077 µM (active); in experiment [4], > 30 µM (inactive); in experiment [5], 0.589 µM (active).
In the case of `C=CC(=O)Nc1cc2c(Nc3ccc(F)c(Cl)c3)ncnc2cc1C#CC(C)(C)N1CCN(C)CC1` [AV-412 FREE BASE], the Kd (in experiment [1]; on Rab-like protein 3; in experiment [2]; at TGF-beta receptor type-1; in experiment [3]; in experiment [5]) was > 30 µM (inactive) each time.
Turning to `CNC(=O)c1ccccc1Sc1ccc2c(/C=C/c3ccccn3)n[nH]c2c1` [AXITINIB], the Kd in experiment [1] and in experiment [4] was > 30 µM (inactive) throughout.
Turning to `Cc1cc(C(=O)NOCCO)c(Nc2ccc(I)cc2F)n(C)c1=O` [AZD-8330], the Kd (in experiment [1]; in experiment [2]; on TGF-beta receptor type-1; in experiment [3]; in experiment [5]) was > 30 µM (inactive) each time.
In the case of `CCn1c(C(=O)N(C2CC2)C2CC2)cc2c3c(ncn3C)c(Nc3cc(C)n(C)n3)nc21` [BMS-911543], the Kd (in experiment [1]; at Rab-like protein 3; in experiment [2]; on TGF-beta receptor type-1; in experiment [3]; in experiment [4]) was > 30 µM (inactive) in each case.
In the case of `CCS(=O)(=O)N1CCN(c2ccc(Nc3ncc(C(N)=O)c(NC4CC4)n3)cc2)CC1` [Cerdulatinib Hydrochloride], the Kd (in experiment [1]; on Rab-like protein 3; in experiment [2]; on TGF-beta receptor type-1; in experiment [3]; in experiment [5]) was > 30 µM (inactive) in each case.
As to `CC(C)(C)c1nc(-c2cccc(NS(=O)(=O)c3c(F)cccc3F)c2F)c(-c2ccnc(N)n2)s1` [DABRAFENIB], the Kd was > 30 µM (inactive) in experiment [1]; > 30 µM (inactive) on Rab-like protein 3; > 30 µM (inactive) in experiment [2]; 2.38 µM (active) at TGF-beta receptor type-1; > 30 µM (inactive) in experiment [3]; > 30 µM (inactive) in experiment [4].
`C[C@@H](Oc1cc(-n2cnc3ccc(CN4CCN(C)CC4)cc32)sc1C(N)=O)c1ccccc1C(F)(F)F` [GSK-461364]: the Kd (in experiment [1]; at Rab-like protein 3; in experiment [4]) was > 30 µM (inactive) in each case.
Regarding `COc1ccc(S(=O)(=O)N(C(C)=O)c2ccccc2/C=C/c2cc[n+]([O-])cc2)cc1` [HMN-214], the Kd (in experiment [1]; at Rab-like protein 3; in experiment [2]; on TGF-beta receptor type-1; in experiment [3]; in experiment [5]) was > 30 µM (inactive) each time.
In the case of `Cc1[nH]c(/C=C2\C(=O)Nc3ccccc32)c(C)c1CCC(=O)O` [ORANTINIB], the Kd (in experiment [1]; on Rab-like protein 3; at TGF-beta receptor type-1) was > 30 µM (inactive) in each case.
With `NC(=O)c1c(OCc2c(F)cc(Br)cc2F)nsc1NC(=O)NCCCCN1CCCC1` [OSI-632], the Kd is > 30 µM (inactive) in experiment [1], > 30 µM (inactive) at Rab-like protein 3, 0.005 µM (active) at TGF-beta receptor type-1 and > 30 µM (inactive) in experiment [4].
With `CNC(=O)c1cc(Oc2ccc(NC(=O)Nc3cc(C(C)(C)C)nn3-c3ccc4ncccc4c3)c(F)c2)ccn1` [REBASTINIB], the Kd (in experiment [1]; on Rab-like protein 3; in experiment [2]; at TGF-beta receptor type-1; in experiment [5]) was > 30 µM (inactive) in each case.
Turning to `O=C(NOCCO)c1cc(CN2OCCCC2=O)c(F)c(F)c1Nc1ccc(I)cc1F` [RO-4987655], the Kd (in experiment [1]; at Rab-like protein 3; in experiment [4]) was > 30 µM (inactive) throughout.
For `N#CC[C@H](C1CCCC1)n1cc(-c2ncnc3[nH]ccc23)cn1` [RUXOLITINIB], the Kd in experiment [1] and in experiment [4] was > 30 µM (inactive) each time.
On to `Cn1ncc(Cl)c1-c1cc(C(=O)N[C@H](CN)Cc2ccc(F)c(F)c2)oc1Cl` [UPROSERTIB], for which the Kd (on Rab-like protein 3; in experiment [2]; on TGF-beta receptor type-1; in experiment [3]; in experiment [4]; in experiment [5]) was > 30 µM (inactive) each time.

One may read the Kd as the concentration at which binding is half-saturated.
